Data taken from patent US7741286B2, “Long lasting anti-angiogenic peptides” (ConjuChem Biotechnologies Inc., priority 1999, dated 2010).

Assay: Peptide stability assay: stability of K5 in human plasma (HPLC/MS of free intact peptide)
Assay type: in vitro ADME
Set-up: remaining at 4 h / remaining at 24 h: dose or concentration left out as unconfirmed
Conditions: for % K5 peptide in plasma: final concentration 160 mM K5
Description: K5 was prepared as a 1 μM solution and dissolved in 25% human serum albumin. The mixture was then incubated at 37° C. in the presence of human plasma to final concentration of […] K5. Aliquots of 100 μl were withdrawn from the plasma at 0, 4 hours and 24 hours. The 100 μl aliquots were mixed with 100 μl of blocking solution (5 vol. 5% ZnSO4/3 vol. Acetonitrile/2 vol. Methanol) in order to precipitate all proteins. The sample was centrifuged for 5 min at 10,000 g and the supernatant containing the peptide was recovered and filtered through a 0.22 μm filter. The presence of free intact K5 peptide was assayed by the HPLC/MS. The HPLC parameters for detection of K5 peptide in serum were as follows.
The HPLC method was as follows: A Vydac C18 250×4.6 mm, 5μ particle size column was utilized. The column temperature was 30° C. with a flow rate of 0.5 ml/min. Mobile Phase A was 0.1% TFA/water. Mobile Phase B was 0.1% TFA/acetonitrite. The injection volume was 10 μl.
The gradient was as follows: […]
The proteins were detected at 214, 254 and 334 nm. For mass spectral analysis, the ionization mode was API-electrospray (positive mode) at an M/Z range of 300 to 2000. The gain was 3.0, fragmentor 120 v, threshold 20, stepsize 0.1. The gas temp was 350° C. and the dying gas volume was 10.0 l/min. The Neb pressure was 24 psi and the Vcap was 3500V. The HPLC method was as follows: A Vydac C18 250×4.6 mm, 5μ particle size column was utilized. The column temperature was 30° C. with a flow rate of 0.5 ml/min. Mobile Phase A was 0.1% TFA/water. Mobile Phase B was 0.1% TFA/acetonitrite. The injection volume was 10 μl.
The proteins were detected at 214, 254 and 334 nm. For mass spectral analysis, the ionization mode was API-electrospray (positive mode) at an M/Z range of 300 to 2000. The gain was 3.0, fragmentor 120 v, threshold 20, stepsize 0.1. The gas temp was 350° C. and the drying gas volume was 10.0 l/min. The Neb pressure was 24 psi and the Vcap was 3500V.

% K5 peptide in plasma (0 hrs, 37° C. in human plasma): 100% | remaining at 4 h (4 hrs, 37° C. in human plasma): 9% | % K5 peptide in plasma (4 hrs, 37° C. in human plasma): 9% | remaining at 24 h (24 hrs, 37° C. in human plasma): 0% | stability of unmodified K5 peptide in serum/plasma (in words) (human plasma, 37° C.): quite unstable
Substance: H-PRKLYDK-NH2 [Example K5, Pro-Arg-Lys-Leu-Tyr-Asp-Lys-NH2]
